# Experimental data taken from patent EP4563146A1 (IRBM S.P.A., priority 2023, dated 2025).
# Read-outs that look alike come from different tables or passages of the source.
# Tests used:
# ZIKV replicon = assay: ZIKV replication inhibition assay (NanoLuc replicon in Vero cells); conditions: Zika virus, Vero, 72 h
# [1] = biological target: T1, West Nile Virus (WNV) NS2B-NS3 protease (West Nile virus, UniProt Q9Q6P4); assay: WNV protease inhibition assay; assay type: biochemical; conditions: Table 4; letter codes for IC50
# T1 construct: NS2B1423-1470); purchased R&D 2907-SE-020
# Text: WNV protease inhibition assay
# [2] = read-out: ZIKA Cell_Nanoluc, Vero cells with stable ZIKV replicon, 72 h, Nano-Glo readout
# T1 sequence (Q9Q6P4 1423-1470): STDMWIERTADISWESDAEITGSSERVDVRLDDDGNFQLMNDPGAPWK
# T1 sequence (Q9Q6P4 1506-1689): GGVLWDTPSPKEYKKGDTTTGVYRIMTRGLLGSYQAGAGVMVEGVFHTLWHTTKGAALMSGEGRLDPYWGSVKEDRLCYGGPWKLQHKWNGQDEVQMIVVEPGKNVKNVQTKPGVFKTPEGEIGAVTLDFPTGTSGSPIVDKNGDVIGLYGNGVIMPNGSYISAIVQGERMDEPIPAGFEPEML
SMILES,EC50 (ZIKV replicon; [2]) [µM],IC50 [1] [µM],EC50 (ZIKV replicon; read-out: ZIKA Cell_Nanoluc) [µM]
"CN1c2ccccc2CCC1C[n+]1cc([N-]C(=O)Nc2ccnc(C(F)(F)F)c2)on1 (racemic) [Example 178, rac-(3-((1-Methyl-1,2,3,4-tetrahydroquinolin-2-yl)methyl)-1,2,3-oxadiazol-3-ium-5-yl)((2-(trifluoromethyl)pyridin-4-yl)carbamoyl)amide]",0.1 to 1,0.1 to 1,
"Cc1ncnc(C)c1-c1ccc(C[n+]2cc([N-]C(=O)N[C@H]3CC[C@@]4(C3)CC4(F)F)on2)nc1 (racemic) [Example 180, rac-(((3R,5S)-1,1-Difluorospiro[2.4]heptan-5-yl)carbamoyl)(3-((5-(4,6-dimethylpyrimidin-5-yl)pyridin-2-yl)methyl)-1,2,3-oxadiazol-3-ium-5-yl)amide]",1 to 20,1 to 20,
"CN1CCc2ccccc2C1C[n+]1cc([N-]C(=O)Nc2ccnc(C(F)(F)F)c2)on1 (racemic) [Example 181, rac-(3-((2-Methyl-1,2,3,4-tetrahydroisoquinolin-1-yl)methyl)-1,2,3-oxadiazol-3-ium-5-yl)((2-(trifluoromethyl)pyridin-4-yl)carbamoyl)amide]",0.1 to 1,< 0.1,
"CN1CCc2ccccc2C1C[n+]1cc([N-]C(=O)Nc2cc(NC(=O)Cc3ccccc3)cc(C(F)(F)F)c2)on1 (racemic) [Example 192, rac-(3-((2-Methyl-1,2,3,4-tetrahydroisoquinolin-1-yl)methyl)-1,2,3-oxadiazol-3-ium-5-yl)((3-(2-phenylacetamido)-5-(trifluoromethyl)phenyl)carbamoyl)amide]",0.1 to 1,0.1 to 1,
"O=C([N-]c1c[n+](CC2CCCc3ccccc32)no1)Nc1ccnc(C(F)(F)F)c1 (racemic) [Example 200, Rac-(3-((1,2,3,4-Tetrahydronaphthalen-1-yl)methyl)-1,2,3-oxadiazol-3-ium-5-yl)((2-(trifluoromethyl)pyridin-4-yl)carbamoyl)amide]",0.1 to 1,0.1 to 1,
"Cc1ccccc1CC(=O)Nc1cc(NC(=O)[N-]c2c[n+]([C@@H]3CCCC[C@@H]3N(C)C)no2)cc(C(F)(F)F)c1 (racemic) [Example 244, rac-(3-((1R,2S)-2-(Dimethylamino)cyclohexyl)-1,2,3-oxadiazol-3-ium-5-yl)((3-(2-(o-tolyl)acetamido)-5-(trifluoromethyl)phenyl)-carbamoyl)amide]",1 to 20,0.1 to 1,
"CNC(=O)[C@H]1CCC[C@@H]([n+]2cc([N-]C(=O)Nc3cc(NC(=O)Cc4ccccc4C)cc(C(F)(F)F)c3)on2)C1 (racemic) [Example 245, rac-(3-((1R,3S)-3-(Methylcarbamoyl)cyclohexyl)-1,2,3-oxadiazol-3-ium-5-yl)((3-(2-(o-tolyl)acetamido)-5-(trifluoromethyl)phenyl)carbamoyl)amide]",1 to 20,0.1 to 1,
"CNC(=O)[C@@H]1CCC[C@@H]([n+]2cc([N-]C(=O)Nc3cc(NC(=O)Cc4ccccc4C)cc(C(F)(F)F)c3)on2)C1 (racemic) [Example 252, rac-(3-((1R,3R)-3-(Methylcarbamoyl)-cyclohexyl)-1,2,3-oxadiazol-3-ium-5-yl)((3-(2-(o-tolyl)-acetamido)-5-(trifluoromethyl)phenyl)-carbamoyl)amide]",1 to 20,0.1 to 1,
"Cc1ccccc1CC(=O)Nc1cc(NC(=O)[N-]c2c[n+]([C@@H]3CCC[C@H](C(=O)N(C)C)C3)no2)cc(C(F)(F)F)c1 (racemic) [Example 253, rac-(3-((1R,3S)-3-(Dimethylcarbamoyl)-cyclohexyl)-1,2,3-oxadiazol-3-ium-5-yl)((3-(2-(o-tolyl)-acetamido)-5-(trifluoromethyl)phenyl)-carbamoyl)amide]",1 to 20,0.1 to 1,
"Cc1ncnc(C)c1-c1ccc(C[n+]2cc([N-]C(=O)N[C@@H]3CC[C@@H](C(F)(F)F)C3)on2)cc1 (racemic) [Example 256, (3-((4-(4,6-Dimethylpyrimidin-5-yl)phenyl)methyl)oxadiazol-3-ium-5-yl)-((rac-(1R,3R)-3-(trifluoromethyl)cyclopentyl)-carbamoyl)azanide]",,0.1 to 1,1 to 20
"CN(C)C[C@H]1CC[C@H]([n+]2cc([N-]C(=O)Nc3cc(NC(=O)[C@@H](F)c4ccccc4F)cc(C(F)(F)F)c3)on2)CC1 (single isomer, unassigned) [Example 243]",,< 0.1,0.1 to 1
"CN(C)C[C@H]1CC[C@H]([n+]2cc([N-]C(=O)Nc3cc(NC(=O)[C@H](F)c4ccccc4F)cc(C(F)(F)F)c3)on2)CC1 (single isomer, unassigned) [Example 271]",,< 0.1,0.1 to 1
"Cc1ccccc1CC(=O)Nc1cc(NC(=O)[N-]c2c[n+]([C@H]3CCC[C@@H](CN(C)C)C3)no2)cc(C(F)(F)F)c1 (stereo in doubt) [Example 246, rac-(3-((1S,3R)-3-((Dimethylamino)methyl)-cyclohexyl)-1,2,3-oxadiazol-3-ium-5-yl)((3-(2-(o-tolyl)acetamido)-5-(trifluoromethyl)phenyl)-carbamoyl)amide]",1 to 20,< 0.1,
"Cc1ccccc1CC(=O)Nc1cc(NC(=O)[N-]c2c[n+]([C@@H]3CCC[C@H](CN(C)C)C3)no2)cc(C(F)(F)F)c1 (stereo in doubt) [Example 247, rac-(3-((1R,3S)-3-((Dimethylamino)methyl)-cyclohexyl)-1,2,3-oxadiazol-3-ium-5-yl)((3-(2-(o-tolyl)acetamido)-5-(trifluoromethyl)phenyl)-carbamoyl)amide]",1 to 20,0.1 to 1,
"COc1ncc(-c2ccc(C[n+]3cc([N-]C(=O)Nc4cc(NC(=O)Cc5ccccc5)cc(C(F)(F)F)c4)on3)cc2)c(C)n1 [Example 1, (3-(4-(2-Methoxy-4-methylpyrimidin-5-yl)benzyl)-1,2,3-oxadiazol-3-ium-5-yl)((3-(2-phenylacetamido)-5-(trifluoromethyl)phenyl)carbamoyl)amide]",1 to 20,1 to 20,
"N[C@H]1CC[C@H](C[n+]2cc([N-]C(=O)Nc3cc(N4CCC(c5ccccc5)C4=O)cc(C(F)(F)F)c3)on2)CC1 (stereo partly drawn) [Example 132, (3-(((1R,4R)-4-Aminocyclohexyl)methyl)-1,2,3-oxadiazol-3-ium-5-yl)((3-(2-oxo-3-phenylpyrrolidin-1-yl)-5-(trifluoromethyl)-phenyl)carbamoyl)amide]",,,> 20
"NC[C@H]1CC[C@@H](C[n+]2cc([N-]C(=O)Nc3cc(N4CCC(c5ccccc5)C4=O)cc(C(F)(F)F)c3)on2)CC1 (stereo partly drawn) [Example 133, (3-(((1S,4S)-4-(Aminomethyl)cyclohexyl)-methyl)-1,2,3-oxadiazol-3-ium-5-yl)((3-(2-oxo-3-phenylpyrrolidin-1-yl)-5-(trifluoromethyl)-phenyl)carbamoyl)amide]",,,1 to 20
"O=C(Cc1ccccc1)Nc1cc(NC(=O)[N-]c2c[n+](CC3CC(NCc4ccc(O)cn4)C3)no2)cc(C(F)(F)F)c1 (stereo not drawn) [Example 134, (3-((3-(((5-Hydroxypyridin-2-yl)methyl)amino)-cyclobutyl)methyl)-1,2,3-oxadiazol-3-ium-5-yl)((3-(2-phenylacetamido)-5-(trifluoromethyl)-phenyl)carbamoyl)amide]",> 20,,
"O=C([N-]c1c[n+](C[C@H]2CC[C@@H](NCC(F)(F)F)CC2)no1)Nc1cc(N2CCC(c3ccccc3)C2=O)cc(C(F)(F)F)c1 (stereo partly drawn) [Example 136, ((3-(2-Oxo-3-phenylpyrrolidin-1-yl)-5-(trifluoromethyl)phenyl)carbamoyl)(3-(((1s,4s)-4-((2,2,2-trifluoroethyl)amino)cyclohexyl)methyl)-1,2,3-oxadiazol-3-ium-5-yl)amide]",,,0.1 to 1
"O=C([N-]c1c[n+](C[C@H]2CC[C@H](NCC(F)(F)F)CC2)no1)Nc1cc(N2CCC(c3ccccc3)C2=O)cc(C(F)(F)F)c1 (stereo partly drawn) [Example 137, ((3-(2-Oxo-3-phenylpyrrolidin-1-yl)-5-(trifluoromethyl)phenyl)carbamoyl)(3-(((1R,4R)-4-((2,2,2-trifluoroethyl)amino)-cyclohexyl)methyl)-1,2,3-oxadiazol-3-ium-5-yl)amide]",,,0.1 to 1
"CCOC(=O)CN1CCC(C[n+]2cc([N-]C(=O)Nc3cc(NC(=O)Cc4ccccc4)cc(C(F)(F)F)c3)on2)CC1 [Example 140, (3-((1-(2-Ethoxy-2-oxoethyl)piperidin-4-yl)methyl)-1,2,3-oxadiazol-3-ium-5-yl)((3-(2-phenylacetamido)-5-(trifluoromethyl)phenyl)-carbamoyl)amide]",0.1 to 1,,
"O=C(Cc1ccccc1)Nc1cc(NC(=O)[N-]c2c[n+](CC3CCN(CCO)CC3)no2)cc(C(F)(F)F)c1 [Example 141, (3-((1-(2-Hydroxyethyl)piperidin-4-yl)methyl)-1,2,3-oxadiazol-3-ium-5-yl)((3-(2-phenylacetamido)-5-(trifluoromethyl)phenyl)-carbamoyl)amide]",1 to 20,,
"O=C([N-]c1c[n+](C[C@H]2CC[C@H](NC(=O)C(F)(F)F)CC2)no1)Nc1cc(N2CC[C@H](c3ccccc3)C2=O)cc(C(F)(F)F)c1 [Example 145, ((3-((R)-2-Oxo-3-phenylpyrrolidin-1-yl)-5-(trifluoromethyl)phenyl)carbamoyl)(3-(((1R,4R)-4-(2,2,2-trifluoroacetamido)cyclohexyl)methyl)-1,2,3-oxadiazol-3-ium-5-yl)amide]",,,1 to 20
"CN(CC(F)(F)F)[C@H]1CC[C@H](C[n+]2cc([N-]C(=O)Nc3cc(N4CC[C@H](c5ccccc5)C4=O)cc(C(F)(F)F)c3)on2)CC1 [Example 146, (3-(((1R,4R)-4-(Methyl(2,2,2-trifluoroethyl)-amino)cyclohexyl)methyl)-1,2,3-oxadiazol-3-ium-5-yl)((3-((R)-2-oxo-3-phenylpyrrolidin-1-yl)-5-(trifluoromethyl)phenyl)carbamoyl)amide]",,,0.1 to 1
